Reference: ChEMBL document CHEMBL2424622, “Development of amino-pyrimidine inhibitors of c-Jun N-terminal kinase (JNK): kinase profiling guided optimization of a 1,2,3-benzotriazole lead” (Bioorg Med Chem Lett, 2013)

Legend:
[1] = tested on: Mast/stem cell growth factor receptor Kit (Homo sapiens), P10721 [V559D,T670I]; assay: Competitive binding affinity to KIT V559D/T670I double mutant (unknown origin) at 10 uM in presence of ATP relative to control
[2] = molecular target: Ribosomal protein S6 kinase alpha-6 (Homo sapiens) (UniProt Q9UK32); assay: Competitive binding affinity to RPS6KA6 kinase domain 1 (unknown origin) at 10 uM in presence of ATP relative to control
Homo sapiens = species on record: Homo sapiens; assay: Competitive binding affinity to EGFR L747 to T751 deletion mutant, Sins mutant (unknown origin) at 10 uM in presence of ATP relative to control
[3] = molecular target: Dual specificity testis-specific protein kinase 1 (Homo sapiens) (UniProt Q15569); assay: Competitive binding affinity to TESK1 (unknown origin) at 10 uM in presence of ATP relative to control
[4] = molecular target: Ribosomal protein S6 kinase alpha-1 (Homo sapiens, UniProt Q15418); assay: Competitive binding affinity to RPS6KA1 kinase domain 2 (unknown origin) at 10 uM in presence of ATP relative to control
[5] = molecular target: T1, Ankyrin repeat and protein kinase domain-containing protein 1 (Homo sapiens) (UniProt Q8NFD2); assay: Competitive binding affinity to ANKK1 (unknown origin) at 10 uM in presence of ATP relative to control
T1 sequence (whole entry): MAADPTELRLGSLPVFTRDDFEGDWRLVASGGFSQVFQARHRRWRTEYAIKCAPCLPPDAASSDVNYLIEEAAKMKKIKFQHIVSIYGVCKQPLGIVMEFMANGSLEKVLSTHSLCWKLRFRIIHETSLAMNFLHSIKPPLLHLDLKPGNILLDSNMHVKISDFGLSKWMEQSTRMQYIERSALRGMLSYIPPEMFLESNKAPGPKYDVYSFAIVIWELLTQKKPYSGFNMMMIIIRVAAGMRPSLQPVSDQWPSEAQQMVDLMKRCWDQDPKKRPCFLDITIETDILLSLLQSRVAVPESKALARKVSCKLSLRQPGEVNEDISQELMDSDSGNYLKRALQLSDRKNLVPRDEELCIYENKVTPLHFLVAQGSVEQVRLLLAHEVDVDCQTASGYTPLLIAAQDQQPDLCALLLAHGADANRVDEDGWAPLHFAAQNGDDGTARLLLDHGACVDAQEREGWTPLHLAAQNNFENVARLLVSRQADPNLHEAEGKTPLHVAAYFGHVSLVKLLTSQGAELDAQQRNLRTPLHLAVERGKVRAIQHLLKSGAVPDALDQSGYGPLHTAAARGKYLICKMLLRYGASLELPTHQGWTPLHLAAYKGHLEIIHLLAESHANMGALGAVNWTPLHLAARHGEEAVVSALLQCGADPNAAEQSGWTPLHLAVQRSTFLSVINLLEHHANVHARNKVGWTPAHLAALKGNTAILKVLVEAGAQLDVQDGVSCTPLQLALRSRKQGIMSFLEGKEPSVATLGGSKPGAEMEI

[6] = molecular target: Serine/threonine-protein kinase pim-3 (Homo sapiens) (UniProt Q86V86); assay: Competitive binding affinity to PIM3 (unknown origin) at 10 uM in presence of ATP relative to control
[7] = molecular target: T2, Serine/threonine-protein kinase DCLK1 (Homo sapiens) (UniProt O15075); assay: Competitive binding affinity to DCAMKL1 (unknown origin) at 10 uM in presence of ATP relative to control
T2 sequence (whole entry): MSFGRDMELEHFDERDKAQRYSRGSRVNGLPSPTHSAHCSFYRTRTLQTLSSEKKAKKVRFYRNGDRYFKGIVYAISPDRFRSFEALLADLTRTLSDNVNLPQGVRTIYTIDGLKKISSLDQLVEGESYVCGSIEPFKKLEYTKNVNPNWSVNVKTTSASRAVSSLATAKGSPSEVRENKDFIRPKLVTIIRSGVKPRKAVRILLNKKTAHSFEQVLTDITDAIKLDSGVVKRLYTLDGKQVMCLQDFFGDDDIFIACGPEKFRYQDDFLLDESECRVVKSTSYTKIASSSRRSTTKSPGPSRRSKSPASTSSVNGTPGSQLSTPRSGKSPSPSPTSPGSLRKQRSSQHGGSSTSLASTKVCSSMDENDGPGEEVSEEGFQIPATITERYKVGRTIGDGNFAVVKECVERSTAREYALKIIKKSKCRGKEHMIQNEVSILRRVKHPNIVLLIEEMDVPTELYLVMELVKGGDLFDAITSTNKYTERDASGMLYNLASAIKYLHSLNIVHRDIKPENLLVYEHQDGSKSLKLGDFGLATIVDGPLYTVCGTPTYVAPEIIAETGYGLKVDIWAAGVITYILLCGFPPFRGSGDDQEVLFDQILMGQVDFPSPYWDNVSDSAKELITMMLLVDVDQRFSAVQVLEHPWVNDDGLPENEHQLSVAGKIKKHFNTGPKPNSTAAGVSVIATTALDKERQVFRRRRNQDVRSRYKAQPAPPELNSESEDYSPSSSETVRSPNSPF

[8] = molecular target: Ribosomal protein S6 kinase alpha-2 (Homo sapiens) (UniProt Q15349); assay: Competitive binding affinity to RPS6KA2 kinase domain 2 (unknown origin) at 10 uM in presence of ATP relative to control
[9] = molecular target: T3, Interleukin-1 receptor-associated kinase 3 (Homo sapiens) (UniProt Q9Y616); assay: Competitive binding affinity to IRAK3 (unknown origin) at 10 uM in presence of ATP relative to control
T3 sequence (whole entry): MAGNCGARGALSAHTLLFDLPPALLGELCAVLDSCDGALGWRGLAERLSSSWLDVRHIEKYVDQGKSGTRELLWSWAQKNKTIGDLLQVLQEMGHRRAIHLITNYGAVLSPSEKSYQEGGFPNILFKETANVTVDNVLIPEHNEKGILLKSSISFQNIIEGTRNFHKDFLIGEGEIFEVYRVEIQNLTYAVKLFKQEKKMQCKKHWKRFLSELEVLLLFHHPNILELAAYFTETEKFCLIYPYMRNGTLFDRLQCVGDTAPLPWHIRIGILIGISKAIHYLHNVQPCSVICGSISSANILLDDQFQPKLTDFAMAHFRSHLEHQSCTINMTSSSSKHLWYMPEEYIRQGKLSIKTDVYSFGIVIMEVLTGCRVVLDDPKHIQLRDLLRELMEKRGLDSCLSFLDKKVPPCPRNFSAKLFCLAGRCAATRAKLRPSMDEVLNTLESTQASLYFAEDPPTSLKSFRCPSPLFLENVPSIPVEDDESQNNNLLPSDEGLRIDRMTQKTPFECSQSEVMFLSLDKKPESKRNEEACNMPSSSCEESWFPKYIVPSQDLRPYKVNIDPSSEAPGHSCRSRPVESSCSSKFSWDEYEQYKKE

Mast/stem cell growth factor receptor Kit (Homo sapiens), P10721 [V559D,T670I], sequence (P10721 whole entry V559D/T670I, the tested form may be a part): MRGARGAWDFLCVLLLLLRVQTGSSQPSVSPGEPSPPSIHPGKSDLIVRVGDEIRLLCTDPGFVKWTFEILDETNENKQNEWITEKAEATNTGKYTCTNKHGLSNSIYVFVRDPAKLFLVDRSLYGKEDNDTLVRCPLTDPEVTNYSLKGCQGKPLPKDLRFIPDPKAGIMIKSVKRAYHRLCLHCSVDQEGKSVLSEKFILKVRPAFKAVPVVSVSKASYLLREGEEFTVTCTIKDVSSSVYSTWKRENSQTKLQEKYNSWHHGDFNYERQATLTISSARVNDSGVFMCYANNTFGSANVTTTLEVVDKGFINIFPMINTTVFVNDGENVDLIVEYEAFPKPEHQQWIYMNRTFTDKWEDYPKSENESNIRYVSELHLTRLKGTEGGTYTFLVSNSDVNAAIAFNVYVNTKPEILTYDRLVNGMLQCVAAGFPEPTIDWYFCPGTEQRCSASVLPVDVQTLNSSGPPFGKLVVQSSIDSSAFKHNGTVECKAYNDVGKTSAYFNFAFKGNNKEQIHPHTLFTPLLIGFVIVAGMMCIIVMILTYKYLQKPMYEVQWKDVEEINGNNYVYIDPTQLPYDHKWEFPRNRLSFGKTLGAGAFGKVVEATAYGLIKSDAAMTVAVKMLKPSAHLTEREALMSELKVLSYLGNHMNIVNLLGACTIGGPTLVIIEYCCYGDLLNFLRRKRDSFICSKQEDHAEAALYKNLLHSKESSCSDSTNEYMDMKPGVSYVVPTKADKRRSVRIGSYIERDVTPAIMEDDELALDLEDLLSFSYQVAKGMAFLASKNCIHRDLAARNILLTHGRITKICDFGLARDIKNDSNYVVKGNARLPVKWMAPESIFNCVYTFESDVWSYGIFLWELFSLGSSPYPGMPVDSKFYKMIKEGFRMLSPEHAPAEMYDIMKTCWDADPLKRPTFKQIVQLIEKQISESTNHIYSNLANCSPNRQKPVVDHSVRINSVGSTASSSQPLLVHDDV
Ribosomal protein S6 kinase alpha-2 (Homo sapiens), sequence (Q15349 whole entry, the tested form may be a part): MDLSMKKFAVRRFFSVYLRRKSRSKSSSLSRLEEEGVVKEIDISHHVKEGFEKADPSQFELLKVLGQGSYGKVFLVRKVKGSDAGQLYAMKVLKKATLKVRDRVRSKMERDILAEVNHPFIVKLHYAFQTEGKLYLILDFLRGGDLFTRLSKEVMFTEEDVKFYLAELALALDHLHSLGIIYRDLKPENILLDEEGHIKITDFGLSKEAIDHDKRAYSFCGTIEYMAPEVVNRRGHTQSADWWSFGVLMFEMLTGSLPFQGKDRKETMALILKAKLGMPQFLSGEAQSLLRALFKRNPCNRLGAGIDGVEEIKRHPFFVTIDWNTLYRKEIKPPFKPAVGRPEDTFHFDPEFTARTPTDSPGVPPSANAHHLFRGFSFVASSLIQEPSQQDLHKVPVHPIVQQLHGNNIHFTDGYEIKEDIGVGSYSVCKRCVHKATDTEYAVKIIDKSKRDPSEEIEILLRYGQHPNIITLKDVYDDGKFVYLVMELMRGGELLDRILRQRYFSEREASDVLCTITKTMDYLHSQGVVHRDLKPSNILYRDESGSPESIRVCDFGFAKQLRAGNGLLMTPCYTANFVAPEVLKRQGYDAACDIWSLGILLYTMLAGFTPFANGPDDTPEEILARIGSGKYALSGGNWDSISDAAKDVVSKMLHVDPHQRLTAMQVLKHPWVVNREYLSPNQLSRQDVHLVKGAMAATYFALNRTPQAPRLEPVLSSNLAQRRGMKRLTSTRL
Ribosomal protein S6 kinase alpha-1, sequence (Q15418 whole entry, the tested form may be a part): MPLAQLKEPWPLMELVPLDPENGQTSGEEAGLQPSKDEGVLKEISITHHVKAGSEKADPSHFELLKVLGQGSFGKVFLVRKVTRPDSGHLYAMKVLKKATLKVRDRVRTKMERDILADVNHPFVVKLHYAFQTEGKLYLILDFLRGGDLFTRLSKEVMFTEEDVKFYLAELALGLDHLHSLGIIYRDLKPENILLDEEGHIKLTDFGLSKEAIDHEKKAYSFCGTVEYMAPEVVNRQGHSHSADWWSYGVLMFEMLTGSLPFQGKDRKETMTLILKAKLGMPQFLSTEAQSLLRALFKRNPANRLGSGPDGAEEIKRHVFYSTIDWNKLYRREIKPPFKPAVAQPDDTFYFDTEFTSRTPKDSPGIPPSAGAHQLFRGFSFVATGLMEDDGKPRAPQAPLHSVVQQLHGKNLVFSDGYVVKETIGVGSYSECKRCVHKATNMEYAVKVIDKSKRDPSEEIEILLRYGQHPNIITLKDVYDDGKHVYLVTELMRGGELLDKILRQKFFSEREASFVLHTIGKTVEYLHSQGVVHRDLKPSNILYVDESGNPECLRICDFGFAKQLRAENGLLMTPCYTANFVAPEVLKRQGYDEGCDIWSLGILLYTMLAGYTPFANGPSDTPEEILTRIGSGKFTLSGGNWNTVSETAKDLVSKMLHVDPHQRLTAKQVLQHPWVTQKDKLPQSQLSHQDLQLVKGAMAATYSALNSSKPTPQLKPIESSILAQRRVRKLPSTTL
Dual specificity testis-specific protein kinase 1 (Homo sapiens), sequence (Q15569 whole entry, looked up, the tested form may be a part): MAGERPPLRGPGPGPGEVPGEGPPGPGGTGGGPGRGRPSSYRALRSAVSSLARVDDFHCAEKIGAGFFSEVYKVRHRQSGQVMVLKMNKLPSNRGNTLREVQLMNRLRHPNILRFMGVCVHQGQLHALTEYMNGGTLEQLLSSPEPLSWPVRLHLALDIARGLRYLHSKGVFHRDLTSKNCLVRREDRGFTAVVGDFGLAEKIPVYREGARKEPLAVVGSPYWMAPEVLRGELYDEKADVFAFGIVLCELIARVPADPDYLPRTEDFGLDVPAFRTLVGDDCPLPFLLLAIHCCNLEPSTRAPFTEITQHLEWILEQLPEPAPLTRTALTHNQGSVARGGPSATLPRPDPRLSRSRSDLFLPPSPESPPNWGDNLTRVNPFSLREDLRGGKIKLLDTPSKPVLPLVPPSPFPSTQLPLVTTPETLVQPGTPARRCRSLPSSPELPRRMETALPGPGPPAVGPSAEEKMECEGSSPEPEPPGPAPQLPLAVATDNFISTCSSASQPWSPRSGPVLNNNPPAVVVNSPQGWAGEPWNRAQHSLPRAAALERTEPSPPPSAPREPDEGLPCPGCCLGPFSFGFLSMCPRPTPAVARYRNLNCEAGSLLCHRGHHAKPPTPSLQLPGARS
Ribosomal protein S6 kinase alpha-6 (Homo sapiens), sequence (Q9UK32 whole entry, the tested form may be a part): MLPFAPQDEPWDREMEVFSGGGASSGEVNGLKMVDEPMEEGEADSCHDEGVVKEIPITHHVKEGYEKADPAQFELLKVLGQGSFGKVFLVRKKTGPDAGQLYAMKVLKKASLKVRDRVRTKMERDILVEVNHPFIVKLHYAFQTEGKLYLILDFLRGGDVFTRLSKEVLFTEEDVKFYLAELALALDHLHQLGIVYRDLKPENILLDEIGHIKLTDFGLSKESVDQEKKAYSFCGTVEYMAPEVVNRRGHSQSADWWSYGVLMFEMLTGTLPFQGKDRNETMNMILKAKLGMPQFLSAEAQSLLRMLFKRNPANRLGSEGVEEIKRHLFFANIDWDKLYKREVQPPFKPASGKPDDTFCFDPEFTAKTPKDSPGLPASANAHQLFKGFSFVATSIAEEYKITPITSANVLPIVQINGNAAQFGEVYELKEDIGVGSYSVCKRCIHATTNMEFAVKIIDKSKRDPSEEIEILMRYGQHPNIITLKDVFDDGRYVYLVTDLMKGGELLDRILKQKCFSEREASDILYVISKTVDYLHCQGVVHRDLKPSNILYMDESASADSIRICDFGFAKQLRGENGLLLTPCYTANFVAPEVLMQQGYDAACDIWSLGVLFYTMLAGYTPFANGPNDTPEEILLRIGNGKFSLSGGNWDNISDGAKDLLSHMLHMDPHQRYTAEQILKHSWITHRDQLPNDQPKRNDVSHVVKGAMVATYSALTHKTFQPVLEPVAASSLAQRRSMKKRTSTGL

inhibition [1] [%]	inhibition [2] [%]	inhibition (Homo sapiens) [%]	inhibition [3] [%]	inhibition [4] [%]	inhibition [5] [%]	inhibition [6] [%]	inhibition [7] [%]	inhibition [8] [%]	inhibition [9] [%]	SMILES
96	79	< 50	98							O[C@H]1CC[C@H](Nc2nccc(-c3n[nH]c4ccccc34)n2)CC1
< 50	< 50	< 50	82	95	< 50	< 50	< 50	< 50	87	O[C@H]1CC[C@H](Nc2nccc(-n3ccc4ccccc43)n2)CC1
74	< 50	< 50	< 50	100	69	88	66	87	85	O[C@H]1CC[C@H](Nc2nccc(-n3nnc4ccccc43)n2)CC1
80	< 50	< 50	82	100	< 50	96	< 50	< 50	88	O[C@H]1CC[C@H](Nc2nccc(-n3ncc4ccccc43)n2)CC1
